# How the values were obtained:
# [1] = target: T1, KRas-mediated phosphorylation of ERK in H358 cells (Homo sapiens, UniProt P01116, G12C); test: Inhibition of KRas-mediated phosphorylation of ERK (HTRF), H358 cells; format: cell-based; conditions: HTRF pERK, 3 h incubation
# T1 construct: pERK HTRF read-out
# [2] = target: T2, KRas WT (Homo sapiens, UniProt P01116); test: KRas binding assay, TR-FRET displacement of Cy5 labelled tracer; conditions: 60-minute incubation at room temperature, 1% DMSO, pH 7.5
# T2 construct: Biotinylated KRas (corresponding to amino acids 1-169, produced at Accelegan Inc.); biotin (biotinylated); purchased Accelegan Inc
# Summary of the method: (§1)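 Tb-streptavidin captured biotinylated KRas (1-169) in HEPES 50 mM, DTT 1 mM, MgCl2 5 mM, Tween-20 0.005% (pH 7.5), alongside tracer and compound at 1% final DMSO. One hour at RT, then read; IC50 from 4-parameter POC fit.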
# [3] = target: T3, KRas G12C (Homo sapiens, UniProt P01116, G12C); test: as above; conditions: 60-minute incubation at room temperature, 1% DMSO, pH 7.5
# T3 construct: Biotinylated KRas (corresponding to amino acids 1-169, produced at Accelegan Inc.); biotin (biotinylated); purchased Accelegan Inc
# Summary of the method: as §1
# [4] = target: T4, KRas G12S (Homo sapiens, UniProt P01116, G12S); test: as above; conditions: 60-minute incubation at room temperature, 1% DMSO, pH 7.5
# T4 construct: Biotinylated KRas (corresponding to amino acids 1-169, produced at Accelegan Inc.); biotin (biotinylated); purchased Accelegan Inc
# Summary of the method: as §1
# [5] = target: T5, KRas-mediated phosphorylation of ERK in MKN1 cells (Homo sapiens, UniProt P01116); test: Inhibition of KRas-mediated phosphorylation of ERK (HTRF), MKN1 cells; format: cell-based; conditions: MKN1 cells (KRas WT); HTRF pERK; 3 h incubation
# T5 construct: pERK HTRF read-out
# Method: Inhibition of KRas Phosphorylation of ERK (HTRF) by Exemplary Compounds of Formula (Ia) or (Ib)
# Cisbio HTRF Advanced pERK Assay Catalog #64AERPEH • Cells: MKN1, PSN1 • Procedure: • 1. Day 1: Seed 6,000 cells/well −25 μl/well in 384-well white solid bottom plate; RPM1_10% FBS. Incubate overnight at 37 °C/5% CO2. • 2.
# [6] = target: T6, KRas-mediated phosphorylation of ERK in A549 cells (Homo sapiens, UniProt P01116, G12S); test: Inhibition of KRas-mediated phosphorylation of ERK (HTRF), A549 cells; format: cell-based; conditions: HTRF pERK, 3 h incubation
# T6 construct: pERK HTRF read-out
# T6 sequence (P01116 1-188 isoform P01116-2 G12S): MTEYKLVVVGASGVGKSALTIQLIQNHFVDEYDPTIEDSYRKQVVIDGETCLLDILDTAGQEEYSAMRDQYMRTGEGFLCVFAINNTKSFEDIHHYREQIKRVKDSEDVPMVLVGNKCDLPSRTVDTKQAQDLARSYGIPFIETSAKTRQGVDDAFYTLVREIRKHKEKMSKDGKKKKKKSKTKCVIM
# T4 sequence (P01116 1-169 isoform P01116-2 G12S): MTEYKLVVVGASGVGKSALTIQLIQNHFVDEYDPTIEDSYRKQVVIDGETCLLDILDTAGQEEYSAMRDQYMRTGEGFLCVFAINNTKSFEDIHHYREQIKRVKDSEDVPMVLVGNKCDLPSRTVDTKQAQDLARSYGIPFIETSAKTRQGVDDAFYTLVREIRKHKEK
# T3 sequence (P01116 1-169 isoform P01116-2 G12C): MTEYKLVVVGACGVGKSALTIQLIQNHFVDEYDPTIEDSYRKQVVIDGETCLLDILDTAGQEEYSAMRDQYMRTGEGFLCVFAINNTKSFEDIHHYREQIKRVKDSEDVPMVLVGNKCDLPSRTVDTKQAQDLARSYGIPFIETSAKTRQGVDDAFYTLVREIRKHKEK
# T1 sequence (P01116 1-188 isoform P01116-2 G12C): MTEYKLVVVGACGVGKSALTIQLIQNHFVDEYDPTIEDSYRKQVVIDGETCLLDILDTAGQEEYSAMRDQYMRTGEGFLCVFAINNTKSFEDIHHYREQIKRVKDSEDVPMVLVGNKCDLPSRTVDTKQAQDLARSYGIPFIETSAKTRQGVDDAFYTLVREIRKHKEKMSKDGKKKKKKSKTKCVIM
# T2 sequence (P01116 1-169 isoform P01116-2): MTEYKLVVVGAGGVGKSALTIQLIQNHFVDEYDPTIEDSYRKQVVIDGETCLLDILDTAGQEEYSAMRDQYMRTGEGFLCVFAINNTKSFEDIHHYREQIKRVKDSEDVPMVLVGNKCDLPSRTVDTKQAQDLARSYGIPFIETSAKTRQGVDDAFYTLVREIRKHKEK
# T5 sequence (P01116 1-188 isoform P01116-2): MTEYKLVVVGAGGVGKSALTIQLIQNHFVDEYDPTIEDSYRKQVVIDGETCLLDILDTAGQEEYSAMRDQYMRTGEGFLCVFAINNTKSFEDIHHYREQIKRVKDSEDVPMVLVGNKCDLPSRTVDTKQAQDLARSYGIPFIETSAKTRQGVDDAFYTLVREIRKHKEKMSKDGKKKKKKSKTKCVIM
SMILES,IC50 [1],IC50 [2],IC50 [3],IC50 [4],IC50 [5],IC50 [6]
"COCC(C)OC(=O)C1CCN(c2nc(OC[C@@]34CCCN3C[C@H](F)C4)nc3c(F)c(-c4ccc(F)c5sc(N)c(C#N)c45)c(Cl)cc23)CC1 (stereo partly drawn) [Example 240, 1-methoxypropan-2-yl 1-(7-(2-amino-3-cyano-7-fluorobenzo[b]thiophen-4-yl)-6-chloro-8-fluoro-2-(((2R,7aS)-2-fluorotetrahydro-1H-pyrrolizin-7a(5H)-yl)methoxy)quinazolin-4-yl)piperidine-4-carboxylate]",658 nM,16 nM,66 nM,62 nM,44 nM,775 nM
"N#Cc1c(N)sc2c(F)ccc(-c3c(Cl)cc4c(N5CCC(C(=O)N6CCOCC6)CC5)nc(OC[C@@]56CCCN5C[C@H](F)C6)nc4c3F)c12 [Example 241, 2-amino-4-(6-chloro-8-fluoro-2-(((2R,7aS)-2-fluorotetrahydro-1H-pyrrolizin-7a(5H)-yl)methoxy)-4-(4-(morpholine-4-carbonyl)piperidin-1-yl)quinazolin-7-yl)-7-fluorobenzo [b]thiophene-3-carbonitrile]",163 nM,5 nM,11 nM,11 nM,27 nM,367 nM
"CON(C)C(=O)C1CCN(c2nc(OC[C@@]34CCCN3C[C@H](F)C4)nc3c(F)c(-c4ccc(F)c5sc(N)c(C#N)c45)c(Cl)cc23)CC1 [Example 242, 1-(7-(2-amino-3-cyano-7-fluorobenzo[b]thiophen-4-yl)-6-chloro-8-fluoro-2-(((2R,7aS)-2-fluorotetrahydro-1H-pyrrolizin-7a(5H)-yl)methoxy)quinazolin-4-yl)-N-methoxy-N-methylpiperidine-4-carboxamide]",149 nM,8 nM,14 nM,12 nM,17 nM,240 nM
"N#Cc1c(N)sc2c(F)ccc(-c3c(Cl)cc4c(N5CCC(C(=O)N6CCCC6)CC5)nc(OC[C@@]56CCCN5C[C@H](F)C6)nc4c3F)c12 [Example 246, 2-amino-4-(6-chloro-8-fluoro-2-(((2R,7aS)-2-fluorotetrahydro-1H-pyrrolizin-7a(5H)-yl)methoxy)-4-(4-(pyrrolidine-1-carbonyl)piperidin-1-yl)quinazolin-7-yl)-7-fluorobenzo [b]thiophene-3-carbonitrile]",167 nM,8 nM,13 nM,14 nM,24 nM,223 nM
"N#Cc1c(N)sc2c(F)ccc(-c3c(Cl)cc4c(N5CCC(C(=O)N6C7CCC6COC7)CC5)nc(OC[C@@]56CCCN5C[C@H](F)C6)nc4c3F)c12 [Example 247, 4-(4-(4-(3-oxa-8-azabicyclo[3.2.1]octane-8-carbonyl)piperidin-1-yl)-6-chloro-8-fluoro-2-(((2R,7aS)-2-fluorotetrahydro-1H-pyrrolizin-7a(5H)-yl)methoxy)quinazolin-7-yl)-2-amino-7-fluorobenzo[b]thiophene-3-carbonitrile]",296 nM,12 nM,21 nM,24 nM,61 nM,677 nM
"Cc1ccn(C(=O)C2CCCN(c3nc(OC[C@@]45CCCN4C[C@H](F)C5)nc4c(F)c(-c5c(C#N)c(N)cc(C)c5C(F)(F)F)c(Cl)cc34)CC2)n1 (stereo partly drawn) [Example 248, 6-amino-2-(6-chloro-8-fluoro-2-(((2R,7aS)-2-fluorotetrahydro-1H-pyrrolizin-7a(5H)-yl)methoxy)-4-(4-(3-methyl-1H-pyrazole-1-carbonyl)azepan-1-yl)quinazolin-7-yl)-4-methyl-3-(trifluoromethyl)benzonitrile]",4220 nM,669 nM,360 nM,57 nM,2920 nM,100 nM

# Continued by falling IC50 [1], values first:
IC50 [1],IC50 [2],IC50 [3],IC50 [4],IC50 [5],IC50 [6],SMILES
148 nM,6 nM,12 nM,8 nM,15 nM,148 nM,"Cn1ccc(COC(=O)C2CCN(c3nc(OC[C@@]45CCCN4C[C@H](F)C5)nc4c(F)c(-c5ccc(F)c6sc(N)c(C#N)c56)c(Cl)cc34)CC2)n1 [Example 245, (1-methyl-1H-pyrazol-3-yl)methyl 1-(7-(2-amino-3-cyano-7-fluorobenzo[b]thiophen-4-yl)-6-chloro-8-fluoro-2-(((2R,7aS)-2-fluorotetrahydro-1H-pyrrolizin-7a(5H)-yl)methoxy)quinazolin-4-yl)piperidine-4-carboxylate]"
114 nM,11 nM,6 nM,8 nM,171 nM,669 nM,"CN(C)C(=O)N(C)C(=O)CCCN(C)c1nc(OC[C@@]23CCCN2C[C@H](F)C3)nc2c(F)c(-c3ccc(F)c4sc(N)c(C#N)c34)c(Cl)cc12 [Example 239, 4-((7-(2-amino-3-cyano-7-fluorobenzo[b]thiophen-4-yl)-6-chloro-8-fluoro-2-(((2R,7aS)-2-fluorotetrahydro-1H-pyrrolizin-7a(5H)-yl)methoxy)quinazolin-4-yl)(methyl)amino)-N-(dimethylcarbamoyl)-N-methylbutanamide]"
26 nM,330 nM,19 nM,127 nM,736 nM,215 nM,"Cc1ccccc1OC(=O)C1CCN(c2nc(OC[C@@]34CCCN3C[C@H](F)C4)nc3c(F)c(-c4ccc(F)c5sc(N)c(C#N)c45)c(Cl)cc23)CC1 [Example 243, o-tolyl 1-(7-(2-amino-3-cyano-7-fluorobenzo[b]thiophen-4-yl)-6-chloro-8-fluoro-2-(((2R,7aS)-2-fluorotetrahydro-1H-pyrrolizin-7a(5H)-yl)methoxy)quinazolin-4-yl)piperidine-4-carboxylate]"
12 nM,289 nM,9 nM,23 nM,279 nM,55 nM,"COc1cccc(OC(=O)C2CCN(c3nc(OC[C@@]45CCCN4C[C@H](F)C5)nc4c(F)c(-c5ccc(F)c6sc(N)c(C#N)c56)c(Cl)cc34)CC2)c1 [Example 244, 3-methoxyphenyl 1-(7-(2-amino-3-cyano-7-fluorobenzo[b]thiophen-4-yl)-6-chloro-8-fluoro-2-(((2R,7aS)-2-fluorotetrahydro-1H-pyrrolizin-7a(5H)-yl)methoxy)quinazolin-4-yl)piperidine-4-carboxylate]"
2 nM,11 nM,< 2 nM,7 nM,223 nM,249 nM,"CN(CCNC(=O)n1ccnn1)c1nc(OC[C@@]23CCCN2C[C@H](F)C3)nc2c(F)c(-c3ccc(F)c4sc(N)c(C#N)c34)c(Cl)cc12 [Example 249, N-(2-((7-(2-amino-3-cyano-7-fluorobenzo[b]thiophen-4-yl)-6-chloro-8-fluoro-2-(((2R,7aS)-2-fluorotetrahydro-1H-pyrrolizin-7a(5H)-yl)methoxy)quinazolin-4-yl)(methyl)amino)ethyl)-1H-1,2,3-triazole-1-carboxamide]"

# — patent US20260356856A1, “KRAS G12S AND G12C INHIBITORS” (MIRATI THERAPEUTICS, INC., priority 2023, published 2026)
